Measured values taken from US10590413B2, “Chiral control” (WAVE LIFE SCIENCES LTD., priority 2012, dated 2020).
Where two headings read alike, the source gives them in different places.

Tests used:
NK activity = conditions: cited from earlier work
human PBMC = conditions: cited from earlier work
[1] = system: ODN-induced cytokine expression; conditions: ELISA on supernatants from DBA/2 spleen cells, 2 × 10^7 cells/ml, 24 hr, ODN at 30 μg/ml; cited from earlier work
[2] = oligo 1619 alone or with a second "bad" CpG oligonucleotide added; cited from earlier work
[3] = system: Murine IL-6 production and B cell activation; conditions: cited from earlier work; for IL-6 (pg/ml) CH12.LX: CH12.LX cells; for IL-6 (pg/ml) SPLENIC B CELL: splenic B cells
B cell proliferation = B cell proliferation induced by a stimulatory CpG motif; oligonucleotide added alone or with inhibitory ODN 1735; cited from earlier work
[4] = system: human B cell proliferation; conditions: human spleen cells or PBNC, ODN at 6 μml, 4-7 days, 3H thymidine, cited from earlier work
NK Lytic Activity = conditions: cited from earlier work
NK LU = conditions: PBMC, phosphorothioate ODN, cited from earlier work
[5] = system: CpG-induced cytokine secretion; conditions: RALB/c spleen cells, 24 hr, ELISA, cited from earlier work
[6] = system: Mouse Apolipoprotein B/GAPDH mRNA; experiment: Apolipoprotein B mRNA assay in transfected mouse primary hepatocytes (Example 88); assay type: cell-based
Method: C57BL6 male mice, 7 weeks of age were used to extract and plate mouse primary hepatocytes in 96-well plates (without overlay) (Celsis/Bioreclamation IVT). Transfection of primary hepatocytes was carried out with lipofectin (Life Technologies, cat. No. 18292-037) using the manufacturer's protocol, using 0.5 ul of Lipofectin per 96-plate well. Twelve, 1:3 siRNA duplex dilutions were created starting at 6 uM. 10 ul of 10× oligo was then lipoplexed with a prepared mixture of 9.5 ul of In vitro Gro HI Medium (Celsis Cat. Z99009) serum-free medium and 0.5 ul of Lipofectin per well. After a 10-15 minute incubation, 20 ul of lipoplexed oligo was added to primary hepatocytes in 80 ul of In vitro Gro HI Medium to bring the final volume to 100 ul per well. 24 hours after transfection, cells were lysed.
Total mRNA was purified from cell lysates using MagMAX™-96 Total RNA Isolation Kit (Life Technologies, AM1830); 15 ul of cDNA was synthesized with High Capacity cDNA Reverse Transcription Kit with RNase Inhibitor (Life Technologies, 4374967). Gene expression was evaluated by Real-Time PCR on a Lightcycler 480 (Roche) using a Probes Master Mix (Roche, 04 707 494 001) according to manufacturer's protocol using the following primers: Mouse apolipoprotein B primers:
[Template: (GenBank Accession Number M35186)]
The delta delta Ct method was used to calculate values. […]

(Ap)9A = conditions: duplex with (Ap)9A; cited from earlier work
CD40 = conditions: US 6,218,371 Table 3; cited from earlier work
T cell proliferation = conditions: US 6,218,371 Table 3; cited from earlier work
CD86 = conditions: US 6,218,371 Table 3; cited from earlier work
[7] = ODN 12 μg/ml, 24 hr, 10% autologous serum, level above wells with no ODN, ELISA
[8] = unstimulated control ≤10 pg/ml, US 6,239,116 Table 2

1619 (DNA TCCATGTCGTTCCTGATGCT; chemistry not given here) [Oligonucleotide 1619]
LU/10^6, Mouse Cells (NK activity; Expt. 3, None = 0.00): 3.35 LU/10^6 | NK activity LU/10^5 Mouse Cells (NK activity; Table 3 of U.S. Pat. No. 6,214,806): 3.35 LU/10^5 | NK activity LU/10^6 Mouse Cells (NK activity; Table 9 of U.S. Pat. No. 6,207,646): 3.35 LU/10^6 | TNF-α (human PBMC; ODN 12 μg/ml, 4 hr, 10% autologous serum, level above wells with no ODN, ELISA): 450 pg/mL | GM-CSF (human PBMC; [7]): 80 pg/mL | IFN-γ (human PBMC; [7]): 200 pg/mL | IL-6 (human PBMC; [7]): 275 pg/mL | IL-12 (human PBMC; [7]): 450 pg/mL | GM-CSF (human PBMC): 80 | IFN-γ (human PBMC): 200 | IL-6 (human PBMC): 275 | IL-12 (human PBMC): >500 | TNF-α (human PBMC): 450 | ODN-induced cytokine expression IFN-γ [1]: 4628 pg/mL | ODN-induced cytokine expression IL-6 [1]: 1405 pg/mL | ODN-induced cytokine expression IL-12 [1]: 3130 pg/mL | IL-12 in pg/ml [2]: 6 pg/mL | IL-6 (pg/ml) CH12.LX [3]: 1555 ± 304 pg/mL | IL-6 (pg/ml) CH12.LX [3, 8]: 1555 ± 304 pg/mL | SI (stimulation index, [3H] uridine uptake, fold increase from unstimulated control) ([3]; cells stimulated with 20 μM CpG O-ODN, mean ± SD of triplicates): 12.5 ± 1.0 | SI (stimulation index, [3H] uridine uptake) ([3]; fold increase from unstimulated control, 20 μM CpG O-ODN, mean ± SD of triplicates): 12.5 ± 1.0 | IgM ([3]; measured by ELISA, unstimulated culture 547 ± 82 ng/ml): 8243 ± 698 ng/mL | IL-6 (pg/ml) SPLENIC B CELL [3]: 2908 ± 129 pg/mL | IL-6 (pg/ml) SPLENIC B CELL [3, 8]: 2908 ± 129 pg/mL

1720 (DNA 1720 (TCCATGAGCTTCCTGATGCT); as printed in the source, key not given here) [Oligonucleotide 1720]
cpm (B cell proliferation) (B cell proliferation): 601 cpm

1841 (DNA TCCATAGCGTTCCTAGCGTT; chemistry not given here) [Oligonucleotide 1841]
Stimulation Index, expt. 1 ([4]; US 6,214,806 Table 6): 3 | Stimulation Index, expt. 1 ([4]; US 6,239,116 Table 12): 3 | NK Lytic Activity (LU) (NK Lytic Activity; human PBMC cultured with ODN 6 μg/ml for 24 hr, lysis of 51Cr-labeled K562 cells): 1.45 LU | LU (NK lytic activity) (NK Lytic Activity; human PBMC, ODN 6 μg/ml for 24 hr, lysis of Cr-labeled K562 cells, cells alone 0.01): 1.45 LU

1963 (DNA TCCTTGTCGTTCCTGTCGTT; DNA, all phosphorothioate, methylation of C not given here) [Oligonucleotide 1963]
Stimulation Index, expt. 1 ([4]; US 6,214,806 Table 6): 3 | Stimulation Index, expt. 1 ([4]; US 6,239,116 Table 12): 3 | NK LU, expt. 1 (NK LU; expt. 1 (one donor), US 6,214,806 Table 5): 3.42 LU | NK LU, expt. 1 (NK LU; expt. 1, cells alone 0.00, US 6,239,116 Table 11): 3.42 LU

2037 (DNA TCCATGCCGTTCCTGCCGTT; chemistry not given here) [Oligonucleotide 2037]
IL-12 secretion ([5]; 2 × 10^7 cells/ml, indicated ODN alone): 423 pg/mL | CpG-S-induced IL-12 secretion ([5]; IL-12 secretion induced by addition of CpG ODN 1619 at 30 μg/ml): 2847 pg/mL

(All(Rp))-GsTs5mCs5mCs5mCsTsGsAsAsGsAsTsGsTs5mCsAsAsTsGs5mC (DNA GTCCCTGAAGATGTCAATGC; chemistry not fully specified) [ONT-82]
IC50 ([6]; relative IC50, bottom 0 and top 100 constrained, read-out: IC50 for Suppression of Mouse Apolipoprotein B/GAPDH mRNA Levels): 64.4 nM | Hill Slope ([6]; suppression of ApoB/GAPDH mRNA, bottom 0 and top 100 constrained): −0.3

(Rp)-(Ups)9U
Tm value of duplex compared with natural-(Up)9U/(Ap)9A ((Ap)9A): higher Tm value

(Sp)-(Ups)9U
Tm value of duplex compared with natural-(Up)9U/(Ap)9A ((Ap)9A): did not form a duplex

GM-CSF
CD40 (4 Exp.) (CD40): 2.5 | T cell proliferation (T cell proliferation): 13.3 | CD86 (5 Exp) (CD86): 1.9
